Read-outs that look alike come from different tables or passages of the source.
Assays:
[1] = Antibiotic concentrations in porcine oral fluid after intramuscular application (UHPLC-MS/MS); type: in vivo; details: pigs, i.m.; for concentration at 1 d / concentration at 2 d / concentration at 3 d / concentration at 4 d / concentration at 5 d / concentration at 6 d / concentration at 7 d / concentration at 8 d / concentration at 9 d / concentration at 10 d / concentration at 11 d / concentration at 12 d / concentration at 13 d / concentration at 14 d / concentration at 15 d / concentration at 16 d / concentration at 17 d / concentration at 18 d / concentration at 19 d / concentration at 20 d / concentration at 21 d / concentration at 22 d / concentration at 23 d / concentration at 24 d / concentration at 25 d / concentration at 26 d / concentration at 27 d / concentration at 28 d / concentration at 29 d / concentration at 30 d: male, (Landrace × Yorkshire) × Duroc crossbred (DanBred sows), pig, intramuscular; for concentration at 1 d / concentration at 2 d / concentration at 3 d / concentration at 4 d / concentration at 5 d / concentration at 6 d / concentration at 7 d / concentration at 8 d / concentration at 9 d / concentration at 10 d / concentration at 11 d / concentration at 12 d / concentration at 13 d / concentration at 14 d / concentration at 15 d / concentration at 16 d / concentration at 17 d / concentration at 18 d / concentration at 19 d / concentration at 20 d / concentration at 21 d / concentration at 22 d / concentration at 23 d / concentration at 24 d / concentration at 25 d / concentration at 26 d / concentration at 27 d / concentration at 28 d / concentration at 29 d / concentration at 30 d / concentration in oral fluid at withdrawal period / Avarage Concentrations in oral fluid: oral fluid; for concentration in oral fluid at withdrawal period: at the end of the withdrawal period for tissues of each drug (Table 3); for distribution to oral fluid: conclusion in words
Experimental: All animals were born in the sow farm (8000 DanBred sows) located in Northern Poland, after crossing ♀(♂Landrace × ♀Yorskshire) × ♂Duroc. Piglets were weaned after 4 weeks of lactation with an average weight of 6 kg and then moved to the weaner stable (23,000 weaners). After the next 7 weeks, animals were transported to the 9000-places fattening farm with an average body weight of 28 kg, where the trial was performed. All farms in the aforementioned three-phase model used weekly batches and an all-in all-out system. Specialist veterinary and production management care were provided in each location.
For the purpose of the study, 240 immunologically castrated boars were divided into 8 groups, 30 animals in each pen. For the control group, 30 pigs were used in separate pens. Their initial body weight was between 40 and 60 kg. Pigs were housed at 20–25 °C. Fatteners were fed ad libitum with antimicrobial-free water and feed provided by feeders throughout the study. Before the experiment, water and feed were checked for antimicrobials, and no antimicrobial treatments were administered to these pigs before. All animals in one pen were treated due to the same health issue using disposable needles and the same drug and dosage. Pens were separated from each other with concrete walls. The drugs and dosage administered to each experimental group with an indication of withdrawal period for tissues are listed in Table 3. The oral fluid samples were collected using three cotton ropes (70 cm length with 1 cm diameter) in each pen suspended separately for 25 min on the front wall of the pen with bottoms at the pigs’ shoulder height, away from water and feed.
The research material was one pooled sample of oral fluid from 10 pigs, in triplicate, per pen. Ropes were removed immediately after collection. The first oral fluid sample was collected 24 h after the first injection. The collection of each subsequent sample took place at the same time (11:30 A.M.) for 35 consecutive days. Additionally, oral fluid samples were collected from pigs not treated with any antibiotics. Oral fluid from each pen was pooled into one 50-mL Falcon plastic tube and centrifuged at 9447× rcf for 15 min. Centrifuged material was transferred to a 15 mL plastic tube and frozen at −20 °C until analysis.
Before the analysis, the oral fluid samples were centrifuged at 9447× rcf. Next, an aliquot (1 mL) of oral fluid was placed into a 2 mL polypropylene centrifuge tube, and the 30 µL of the internal standard at the concentration of 2 µg/mL was added. For the extraction of analysed antibiotics, 600 µL of 0.5% formic acid was added, vortexed for 30 s and centrifuged for 10 min at 9447× rcf. Then, the supernatant was filtered through a […] PVDF filter into an amber glass vial before chromatographic analysis.
The mass spectrometry detection was operated in the positive ESI mode with multiple reaction monitoring (MRM).

[2] = cited from earlier work
[3] = first day of medication (abstract), read-out: concentration in oral fluid on the first day of medication
[4] = time 1 d (24 h after first injection), treatment period, read-out: Avarage Concentrations in oral fluid
[5] = treatment period, read-out: Avarage Concentrations in oral fluid
[6] = time 4 d, posttreatment, read-out: Avarage Concentrations in oral fluid
[7] = posttreatment, read-out: Avarage Concentrations in oral fluid
[8] = time 30 d, posttreatment, read-out: Avarage Concentrations in oral fluid
[9] = time 1 d (24 h after first injection), treatment period

Row | concentration at 1 d [1, 3] [ng/g] | concentration at 1 d [1, 4] [ng/mL] | concentration at 2 d [1, 5] [ng/mL] | concentration at 3 d [1, 5] [ng/mL] | concentration at 4 d [1, 6] [ng/mL] | concentration at 5 d [1, 7] [ng/mL] | concentration at 6 d [1, 7] [ng/mL] | concentration at 7 d [1, 7] [ng/mL] | concentration at 8 d [1, 7] [ng/mL] | concentration at 9 d [1, 7] [ng/mL] | concentration at 10 d [1, 7] [ng/mL] | concentration at 11 d [1, 7] [ng/mL] | concentration at 12 d [1, 7] [ng/mL] | concentration at 13 d [1, 7] [ng/mL] | concentration at 14 d [1, 7] [ng/mL] | concentration at 15 d [1, 7] [ng/mL] | concentration at 16 d [1, 7] [ng/mL] | concentration at 17 d [1, 7] [ng/mL] | concentration at 18 d [1, 7] [ng/mL] | concentration at 19 d [1, 7] [ng/mL] | Structure (SMILES) | also measured
1 | 22300 | 22300 | 5860 ± 1160 | 4570 ± 766 | 4010 | 5780 ± 788 | 4070 ± 669 | 310 ± 98 | 392 ± 88 | 386 ± 72 | 134 ± 49 | 247 ± 62 | 74.8 ± 21 | 68 ± 16 | 77.4 ± 18 | 69.8 ± 14 | 78.4 ± 12 | 47 ± 18 | 44.2 ± 16 | 58.4 ± 11 | COc1ncnc(NS(=O)(=O)c2ccc(N)cc2)c1OC [SDX, sulfadoxine] | concentration at 20 d [1, 7]: 76.4 ± 14 ng/mL; concentration at 21 d [1, 7]: 21.4 ± 7.3 ng/mL; concentration at 22 d [1, 7]: 25.3 ± 6.9 ng/mL; concentration at 23 d [1, 7]: 15.9 ± 7.2 ng/mL; concentration at 24 d [1, 7]: 37 ± 5.4 ng/mL; concentration at 25 d [1, 7]: 31.5 ± 6.3 ng/mL; concentration at 26 d [1, 7]: 19.1 ± 4.2 ng/mL; concentration at 27 d [1, 7]: 19.3 ± 3.7 ng/mL; concentration at 28 d [1, 7]: 35 ± 8.1 ng/mL; concentration at 29 d [1, 7]: 30.4 ± 7.6 ng/mL; concentration at 30 d [1, 8]: 23 ng/mL; concentration in oral fluid at withdrawal period [1]: 247 ng/mL; Avarage Concentrations in oral fluid [1, 9]: 22,300 ± 3555 µg/L; Avarage Concentrations in oral fluid ([1]; time 4 d, posttreatment): 4010 ± 601 µg/L; Avarage Concentrations in oral fluid ([1]; time 30 d, posttreatment): 23.0 ± 6.2 µg/L; distribution to oral fluid [1]: high distribution; pKa ([2]; weak organic acid): 6.16
2 | 7600 | 7600 | 2520 ± 355 | 2460 ± 311 | 1560 | 1540 ± 233 | 2960 ± 299 | 2570 ± 254 | 875 ± 156 | 567 ± 111 | 621 ± 124 | 279 ± 66 | 254 ± 69 | 138 ± 43 | 269 ± 71 | 156 ± 41 | 279 ± 68 | 182 ± 49 | 176 ± 52 | 202 ± 45 | C=C[C@]1(C)C[C@@H](OC(=O)CSCCN(CC)CC)[C@]2(C)[C@H](C)CC[C@]3(CCC(=O)[C@H]32)[C@@H](C)[C@@H]1O [TIAM, tiamulin] | concentration at 20 d [1, 7]: 133 ± 36 ng/mL; concentration at 21 d [1, 7]: 148 ± 32 ng/mL; concentration at 22 d [1, 7]: 220 ± 44 ng/mL; concentration at 23 d [1, 7]: 146 ± 29 ng/mL; concentration at 24 d [1, 7]: 310 ± 55 ng/mL; concentration at 25 d [1, 7]: 193 ± 33 ng/mL; concentration at 26 d [1, 7]: 66.4 ± 12 ng/mL; concentration at 27 d [1, 7]: 54.3 ± 14 ng/mL; concentration at 28 d [1, 7]: 35.8 ± 17 ng/mL; concentration at 29 d [1, 7]: 40.6 ± 21 ng/mL; concentration at 30 d [1, 8]: 46.9 ng/mL; Avarage Concentrations in oral fluid [1, 9]: 7600 ± 1055 µg/L; Avarage Concentrations in oral fluid ([1]; time 4 d, posttreatment): 1560 ± 225 µg/L; Avarage Concentrations in oral fluid ([1]; time 30 d, posttreatment): 46.9 ± 19 µg/L; distribution to oral fluid [1]: high distribution; pKa [2]: 7.6
3 | 14100 | 14100 | 2810 ± 556 | 1810 ± 311 | 1030 ± 221 | 1400 ± 255 | 1280 ± 198 | 264 ± 73 | 125 ± 41 | 128 ± 38 | 36.4 ± 15 | 67.1 ± 20 | 25.2 ± 9.6 | 22 ± 8.7 | 22.1 ± 6.4 | 31.6 ± 11 | 24.2 ± 8.2 | 18.9 ± 4.8 | 13 ± 3.6 | 42 ± 14 | COc1cc(Cc2cnc(N)nc2N)cc(OC)c1OC [TRMP, trimethoprim] | concentration at 20 d [1, 7]: 36.4 ± 10 ng/mL; concentration at 21 d [1, 7]: 10.2 ± 4.4 ng/mL; concentration at 22 d [1, 7]: 46.4 ± 16 ng/mL; concentration at 23 d [1, 7]: 6.9 ± 2.4 ng/mL; concentration at 24 d [1, 7]: 19.4 ± 5.5 ng/mL; concentration at 25 d [1, 7]: 17.8 ± 4.1 ng/mL; concentration at 26 d [1, 7]: 15.9 ± 3.6 ng/mL; concentration at 27 d [1, 7]: 10.4 ± 2.9 ng/mL; concentration at 28 d [1, 7]: 16.5 ± 6.2 ng/mL; concentration at 29 d [1, 7]: 21.2 ± 9.4 ng/mL; concentration at 30 d [1, 8]: 22.4 ng/mL; concentration in oral fluid at withdrawal period [1]: 67.1 ng/mL; Avarage Concentrations in oral fluid [1, 9]: 14,100 ± 2556 µg/L; Avarage Concentrations in oral fluid ([1]; time 30 d, posttreatment): 22.4 ± 9.1 µg/L; distribution to oral fluid [1]: high distribution
